# Measurements published in patent US20220062240A1, “METHODS OF TREATING CANCER USING A CLK INHIBITOR” (BioSplice Therapeutics, Inc., priority 2018, published 2022).
# Read-outs that look alike come from different tables or passages of the source.
# Key:
# CLK2 = target: T1, CLK2 (Homo sapiens, UniProt P49760); assay: CLK2 kinase activity assay (Z-lyte, Ser/Thr 6 peptide); type: biochemical; settings: recombinant CLK2 kinase, ATP 60 μM; read-out: EC50
# T1 construct: purchased Thermo Fisher (Life Technologies), Z'-LYTE Kinase Assay Kits
# T1 sequence (P49760 whole entry): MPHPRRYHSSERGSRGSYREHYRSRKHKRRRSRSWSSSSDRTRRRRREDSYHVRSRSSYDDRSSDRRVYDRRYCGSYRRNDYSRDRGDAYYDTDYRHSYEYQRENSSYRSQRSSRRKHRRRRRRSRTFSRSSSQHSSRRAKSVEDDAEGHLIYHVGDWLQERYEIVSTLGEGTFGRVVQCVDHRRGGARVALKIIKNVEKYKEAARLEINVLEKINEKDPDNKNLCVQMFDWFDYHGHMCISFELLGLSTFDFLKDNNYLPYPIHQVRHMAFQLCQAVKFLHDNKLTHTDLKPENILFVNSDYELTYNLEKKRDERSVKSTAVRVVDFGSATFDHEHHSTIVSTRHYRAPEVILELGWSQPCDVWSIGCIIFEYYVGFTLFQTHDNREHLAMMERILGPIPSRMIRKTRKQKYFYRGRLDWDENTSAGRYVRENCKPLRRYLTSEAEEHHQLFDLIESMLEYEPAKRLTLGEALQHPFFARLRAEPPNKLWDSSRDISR
# Protocol: All reactions were performed in duplicate.
# CLK3 = CLK3 (Homo sapiens, UniProt P49761); assay: CLK3 kinase activity assay (Z-lyte, Ser/Thr 18 peptide)
# Chain of CLK3 (P49761 whole entry): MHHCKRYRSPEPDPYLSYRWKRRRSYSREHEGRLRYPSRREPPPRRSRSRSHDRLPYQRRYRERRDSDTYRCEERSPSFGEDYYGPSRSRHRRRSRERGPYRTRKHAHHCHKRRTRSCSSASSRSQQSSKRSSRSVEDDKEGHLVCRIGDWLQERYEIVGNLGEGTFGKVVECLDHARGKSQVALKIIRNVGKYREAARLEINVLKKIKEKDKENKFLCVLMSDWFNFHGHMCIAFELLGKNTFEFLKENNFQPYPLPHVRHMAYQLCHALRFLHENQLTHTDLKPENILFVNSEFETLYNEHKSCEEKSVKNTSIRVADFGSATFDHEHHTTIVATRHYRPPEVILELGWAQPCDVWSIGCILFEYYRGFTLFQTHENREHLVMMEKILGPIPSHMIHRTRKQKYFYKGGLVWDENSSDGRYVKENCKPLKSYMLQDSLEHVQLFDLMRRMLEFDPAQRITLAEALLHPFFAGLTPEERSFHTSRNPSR
# [1] = system: Wnt-responsive Sp5-Luc reporter in SW480 colon carcinoma cells; assay: Wnt activity screening assay (Sp5-Luc reporter); type: cell-based; settings: Homo sapiens
# Excerpt: The screening assay for Wnt activity is described as follows. Reporter cell lines can be generated by stably transducing cancer cell lines (e.g., colon cancer) or primary cells (e.g., IEC-6 intestinal cells) with a lentiviral construct that includes a Wnt-responsive promoter driving expression of the firefly luciferase gene.
# SW480 colon carcinoma cells were transduced with a lentiviral vector expressing luciferase with a human Sp5 promoter consisting of a sequence of eight TCF/LEF binding sites. […] These stably transduced SW480 cells were expanded in cell culture and used for all further screening activities. […] For Sp5-Luc reporter gene assays, the cells were plated at 4,000 cells/well in 384-well plates with a DMEM medium containing 1% fetal bovine serum, and 1% Penicillin-Streptomycin and incubated for 36 to 48 hours at 37° C. and 5% CO2. Following incubation, 15 μL of BriteLite Plus luminescence reagent (Perkin Elmer) was added to each well of the 384-well assay plates. The plates were placed on an orbital shaker for 2 min and then luminescence was quantified using the Envision (Perkin Elmer) plate reader.
# [2] = system: SW480 colorectal cancer cells; assay: Gene expression qRT-PCR in SW480 cells; type: cell-based; settings: Homo sapiens
# Protocol: SW480 colorectal cancer cells were plated at 1×10^4 cells per well into 96-well plates (Olympus). Compounds were diluted in cell culture media and added to the cells at a final concentration of 3 μM. Cells were treated with vehicle (DMSO) and compounds for 24 hours. N=3 biological replicates per conditions.
# Following treatment, cells were lysed, and cDNA was generated using the Fastlane Cell cDNA Kit (Qiagen).
# 384-well PCR plates with pre-spotted primers for CLK1, CLK2, CLK3, DVL2, LRP5, SRSF1, SRSF3, SRSF4, SRSF5, TCF7, TCF7L2 were ordered from Bio-Rad. The generated cDNA, along with a SYBR Green qRT-PCR master mix (SsoAdvanced™ Universal SYBR® Green Supermix, Bio-Rad) was added to the PCR plates.
# qRT-PCR was performed on the plates using a CFX384 Touch™ Real-Time PCR Detection System (Bio-Rad) with the manufacturer's recommended thermal cycling conditions.
# Data from the qRT-PCR assay was normalized to the GAPDH and HPRT1 housekeeping genes and set gene expression fold change was set relative to vehicle-treated cells using the ΔΔCt analysis method.
# all 50 cell lines = assay: CellTiter-Glo Viability Assay, average across all cell lines; type: cell-based; settings: Homo sapiens; across all 50 cell lines; read-out: average EC50 for inhibition of cancer cell proliferation
# Protocol: Fifty-one human cancer cell lines (breast cancer (8 cell lines), colorectal cancer (6 cell lines), haematopoietic & lymphoid tumors (13 cell lines), liver cancer (3 cell lines), lung cancer (4 cell lines), ovarian cancer (4 cell lines), pancreatic cancer (8 cell lines), and prostate cancer (5 cell lines)) were tested to determine the effects of representative compounds of Formulas (I)-(XII) on cellular proliferation, as evaluated using the CellTiter-Glo® Viability Assay.
# For the Cell Viability Assays, cells were plated at 300-3,000 cells/well in 384-well plates in their respective media containing 1% Penicillin-Streptomycin and incubated for four days at 37° C. and 5% CO2. Twenty-eight replicates of DMSO-treated cells served as controls and cells treated with compound were performed in duplicate.
# After incubation, 10 μL of CellTiter-Glo® (Promega) was added to each well allowed to incubate for approximately 12 minutes. This reagent results in cell lysis and generation of a luminescent signal proportional to the amount of ATP present. The amount of ATP is directly proportional to the number of metabolically active, viable cells present in culture. The CellTiter-Glo® Assay generates a luminescent signal, produced by the luciferase reaction (Promega.com).
# After incubation, the luminescence signal was read using an EnVision™ Multilabel Plate Reader (Perkin Elmer). Dose-response curves were generated and EC50 concentration values were calculated using Dotmatics' Studies Software (Bishops Stortford, UK).
# [3] = SW480 Sp5-Luc reporter, 36 to 48 hours, read-out: EC50
# [4] = SW480, 3 μM, 24 hours, relative to DMSO, read-out: gene expression fold change CLK1
# [5] = SW480, 3 μM, 24 hours, relative to DMSO, read-out: gene expression fold change CLK2
# [6] = SW480, 3 μM, 24 hours, relative to DMSO, read-out: gene expression fold change CLK3
# [7] = SW480, 3 μM, 24 hours, relative to DMSO, read-out: gene expression fold change DVL2
# [8] = SW480, 3 μM, 24 hours, relative to DMSO, read-out: gene expression fold change LRP5
# [9] = SW480, 3 μM, 24 hours, relative to DMSO, read-out: gene expression fold change SRSF1
# [10] = SW480, 3 μM, 24 hours, relative to DMSO, read-out: gene expression fold change SRSF3
# [11] = SW480, 3 μM, 24 hours, relative to DMSO, read-out: gene expression fold change SRSF4
# [12] = SW480, 3 μM, 24 hours, relative to DMSO, read-out: gene expression fold change SRSF5
# [13] = SW480, 3 μM, 24 hours, relative to DMSO, read-out: gene expression fold change TCF7
# [14] = SW480, 3 μM, 24 hours, relative to DMSO, read-out: gene expression fold change TCF7L2
Compound,EC50 (CLK2) [nM],EC50 (CLK3) [nM],"EC50 [1, 3] [nM]","fold induction at 3 µM [2, 4]","fold induction at 3 µM [2, 5]","fold induction at 3 µM [2, 6]","fold induction at 3 µM [2, 7]","fold induction at 3 µM [2, 8]","fold induction at 3 µM [2, 9]","fold induction at 3 µM [2, 10]","fold induction at 3 µM [2, 11]","fold induction at 3 µM [2, 12]","fold induction at 3 µM [2, 13]","fold induction at 3 µM [2, 14]",further results
CN1CCC(C(=O)Nc2c[nH]nc2-c2nc3c(-c4cccc(F)c4)cccc3[nH]2)CC1 [Compound 1],1,10,39,0.02,0.02,0.01,0.14,0.18,0.32,0.13,0.03,0.39,0.44,0.24,
Cc1ncc(-c2cnc3[nH]nc(-c4cc5c(-c6cc(F)cc(NCCN(C)C)c6)ccnc5[nH]4)c3c2)n1C [Compound 52],1.9,26.6,,,,,,,,,,,,,EC50 (all 50 cell lines): 8.46 µM
Cc1n[nH]c2ncc(-c3cncc(OC[C@@H](N)Cc4ccccc4)n3)cc12 [Compound 4],2,1280,525,0.43,0.35,0.74,0.11,0.06,0.25,0.05,0.7,0.27,0.21,0.13,
Nc1cncc(-c2ccc3cnc(NC(=O)c4ccc(OC5CCNCC5)cc4)cc3c2)c1 [Compound 20],1,19,169,0.07,0.08,0.35,0.42,0.37,1.56,0.5,0.33,0.63,0.47,0.6,
NC1CN(c2cncc(-c3cc4c(-c5nc6c(-c7cccc(F)c7)cccc6[nH]5)n[nH]c4cn3)n2)C1 [Compound 44],18,108,79,,,,,,,,,,,,
Cc1ncc(-c2ccc3[nH]nc(-c4nc5c(-c6cc(F)cc(NCCN(C)C)c6)ccnc5[nH]4)c3n2)n1C [Compound 8],1,22,623,,,,,,,,,,,,
CC(C)CC(=O)Nc1cncc(-c2cc3c(-c4nc5c(-c6cc(F)cc(OCCN7CCCC7)c6)cncc5[nH]4)n[nH]c3cn2)c1 [Compound 45],,,> 10000,,,,,,,,,,,,EC50 (all 50 cell lines): 8.49 µM
CCS(=O)(=O)c1cccc(-c2cc(C(=O)NC3CCN(C)CC3)c(C)c3[nH]c4ncc(C)cc4c23)c1 [Compound 24],3,70,,,,,,,,,,,,,"EC50 ([1]; SW480): 320 nM; fold induction at 3 µM ([2]; SW480, 24 h, read-out: gene expression fold change CLK1): 0.35; fold induction at 3 µM ([2]; SW480, 24 h, read-out: gene expression fold change CLK2): 0.19; fold induction at 3 µM ([2]; SW480, 24 h, read-out: gene expression fold change CLK3): 0.19; fold induction at 3 µM ([2]; SW480, 24 h, read-out: gene expression fold change DVL2): 0.39; fold induction at 3 µM ([2]; SW480, 24 h, read-out: gene expression fold change LRP5): 0.34; fold induction at 3 µM ([2]; SW480, 24 h, read-out: gene expression fold change SRSF1): 0.46; fold induction at 3 µM ([2]; SW480, 24 h, read-out: gene expression fold change SRSF3): 0.31; fold induction at 3 µM ([2]; SW480, 24 h, read-out: gene expression fold change SRSF4): 0.37; fold induction at 3 µM ([2]; SW480, 24 h, read-out: gene expression fold change SRSF5): 0.49; fold induction at 3 µM ([2]; SW480, 24 h, read-out: gene expression fold change TCF7): 0.49; fold induction at 3 µM ([2]; SW480, 24 h, read-out: gene expression fold change TCF7L2): 0.33"
Fc1cccc(-c2cncc3[nH]c(-c4n[nH]cc4/C=C/c4cccnc4)nc23)c1 [Compound 29],5,62,14,,,,,,,,,,,,
Cc1ncc(NC(=O)c2n[nH]c3ccc(-c4cnn(C5CCNCC5)c4)cc23)s1 [Compound 5],0.3,27,257,0.15,0.12,0.55,0.37,0.43,1.52,0.46,0.27,0.6,0.3,0.24,

# Further lines, with some results ahead:
EC50 (CLK2) [nM],EC50 (CLK3) [nM],"EC50 [1, 3] [nM]",Compound,"fold induction at 3 µM [2, 4]","fold induction at 3 µM [2, 5]","fold induction at 3 µM [2, 6]","fold induction at 3 µM [2, 7]","fold induction at 3 µM [2, 8]","fold induction at 3 µM [2, 9]","fold induction at 3 µM [2, 10]","fold induction at 3 µM [2, 11]","fold induction at 3 µM [2, 12]","fold induction at 3 µM [2, 13]","fold induction at 3 µM [2, 14]",further results
2,18,14,O=C(Nc1cc2cc(-c3cncc(NC4CCNC[C@@H]4F)n3)ccc2cn1)C1CC1 (some centres unmarked) [Compound 22],0.04,0.04,0.04,0.41,0.21,0.53,0.18,0.04,0.36,0.75,0.68,
2.2,30.5,2170,O=C(Nc1c[nH]nc1-c1nc2c(-c3cccc(F)c3)cncc2[nH]1)C1CCNCC1 [Compound 89],,,,,,,,,,,,EC50 (all 50 cell lines): 8.5 µM
2.2,19.3,> 10000,CN(C)CCOc1cncc(-c2cc3c(-c4cc5c(-c6cccnc6)ccnc5[nH]4)n[nH]c3cn2)c1 [Compound 49],,,,,,,,,,,,EC50 (all 50 cell lines): 9.72 µM
10,144,114,Cc1nc(Nc2n[nH]c3c2CN(C(=O)N[C@H](CN(C)C)c2ccccc2)C3(C)C)c2sccc2n1 [Compound 25],0.07,0.09,0.08,0.21,0.09,0.2,0.1,0.09,0.19,0.21,0.11,
1,5,13,CC(C)N1CCC(n2cc(C(=O)Nc3cc4cc(-c5cnn(C)c5)ccc4cn3)cn2)CC1 [Compound 11],0.02,0.04,0.09,0.11,0.09,0.74,0.17,0.15,0.24,0.19,0.17,
